Experimental data from patent US20200352923A1 (priority 2017, published 2020).

Test system: rat bladder muscle strips (detrusor)
Assay type: cell-based

## CN(C)C(=O)Oc1ccc[n+](C)c1 [pyridostigmine]
  drop in force from baseline after pyridostigmine: 13±6%
  recovery of the force drop: about 50%
